The values that follow come from paper PMC7646544, “Scaffold hopping and optimisation of 3’,4’-dihydroxyphenyl- containing thienopyrimidinones: synthesis of quinazolinone derivatives as novel allosteric inhibitors of HIV-1 reverse transcriptase-associated ribonuclease H” (Journal of Enzyme Inhibition and Medicinal Chemistry, 2020).

Series [1] concerns the target T1, p66/p51C280A mutant HIV-1 RNase H (Human immunodeficiency virus type 1 group M subtype B, UniProt P04585, C867A). Further details: made in house; method as in PMID 24261890. The following applies: p66/p51 C280A mutant RT; cited from earlier work.
Series [2] concerns HIV-1RF isolate in CEM-SS cells. As to the kind of experiment: Antiviral activity, XTT-based cell viability assay. The following applies: for selectivity index (SI): CC50/EC50, CEM-SS cells; for EC50: Human immunodeficiency virus 1, HIV-1RF, CEM-SS cells, XTT. On the procedure: (§1) Antiviral activity of selected thienopyrimidinones was determined via the 2,3-bis[2-methoxy-4-nitro-5-sulfophenyl]-5-[(phenylamino)carbonyl]-2H tetrazolium hydroxide (XTT)-based cell viability assay of Weislow et al.[45], using the HIV-1RF isolate and human T-cell line CEM-SS.
Background: Tetrazolium assays rely on reduction of a dye to a coloured formazan, in cell work by metabolically active cells.

The target of series [3] is T2, HIV-1 IN in the presence of LEDGF/p75 (Human immunodeficiency virus type 1 group M subtype B, UniProt P04585).
T2 construct: made in house
As to the kind of experiment: HTRF IN LEDGF/p75-dependent assay. In kind it is biochemical. How it is done:
The IN LEDGF/p75-dependent assay measures inhibition of IN activity in the presence of LEDGF/p75 protein[35–37]. Briefly, 50 nM IN was pre-incubated with increasing concentration of compounds for 1 h at room temperature in reaction buffer containing 20 mM HEPES pH 7.5, 1 mM DTT, 1% Glycerol, 20 mM MgCl2, 0.05% Brij-35 and 0.1 mg/ml BSA. To this mixture, 9 nM DNA donor substrate (5′-[…]-Biotin-3′ annealed with 5′-[…]-Biotin3’) and 50 nM DNA acceptor substrate (5′-Cy5-[…]-3′ annealed with 5′-Cy5- […]-3′) and 50 nM LEDGF/p75 were added and incubated at 37 °C for 90 min.
A general note: In TR-FRET formats the signal depends on donor and acceptor labels being close together.

For series [4], the target named is T1, p66/p51C280A mutant HIV-1 RNase H. Briefly: RNase H inhibitor analysis, p66/p51 C280A mutant RT.
Experimental: IC50 values were determined as previously reported[31] using an 18-nt 3′-fluorescein-labeled RNA annealed to a complementary 18-nt 5′-dabcyl-labeled DNA. To a 96-well plate was added 1 μL of each inhibitor (in DMSO), followed by 10 μL of the appropriate RT (15−80 ng/mL) in reaction buffer. […] Wells containing only DMSO was used as negative control. […] IC50 values were determined using Prism5 (GraphPad Software, San Diego, CA). All assays were performed in triplicate.
The nature of series [5]: Cytotoxicity in XTT-based cell viability assay. The following applies: human, CEM-SS T cells. On the procedure: as §1
In the next series the target is T3, HIV-1 RT-associated RDDP (Human immunodeficiency virus type 1 group M subtype B, UniProt P04585).
T3 construct: dynamics at the p66/p51 HIV-1 RT-RNase H dimer interface; made in house
Briefly: HIV-1 RNA-dependent DNA polymerase activity determination. In kind it is biochemical. Particulars: wt RT, poly(A)-oligo(dT). How it is done: HIV-1 RT-associated RDDP activity was measured as described[17]^,[38]. Briefly, in 25 μL volume containing 60 mM Tris-HCl pH 8.1, 8 mM MgCl2, 60 mM KCl, 13 mM DTT, poly(A)-oligo(dT), 100 μM dTTP, and 6 ng wt RT. After enzyme addition, the reaction mixture was incubated for 30 min at 37 °C and stopped by addition of EDTA. […] All assays were performed in triplicate.

For series [6], the target named is T4, wt HIV-1 RT-associated RNase H (Human immunodeficiency virus type 1 group M subtype B, UniProt P04585).
T4 construct: dynamics at the p66/p51 HIV-1 RT-RNase H dimer interface; made in house
Briefly: RNase H inhibitor analysis, wild type RT (fluorescent RNA/DNA hybrid). The following applies: for IC50: wild type RT. In kind it is biochemical. How it is done: All assays were performed in triplicate.

Series [7] addresses T5, HIV-1 RT-associated RNase H (Human immunodeficiency virus type 1 group M subtype B, UniProt P04585).
T5 construct: dynamics at the p66/p51 HIV-1 RT-RNase H dimer interface; made in house
Briefly: Yonetani-Theorell analysis on RNase H activity. In kind it is biochemical. The following applies: combination of compound 11 and compound 24. On the procedure: Yonetani–Theorell analysis[43] was performed as reported. Briefly, HIV RT-associated RNase H activity was measured in 100 µL reaction volume containing 50 mM Tris–HCl buffer pH 7.8, 6 mM MgCl2, 1 mM dithiothreitol (DTT), 80 mM KCl, 0.25 µM hybrid RNA/DNA 5′-[…]-Fluorescin-3′ (HPLC, dry, QC: Mass Check) (available from Metabion) 5′-Dabcyl-[…]-3′(HPLC, dry, QC: Mass Check), and different amount of enzymes according to a linear range of dose-response curve: 20 ng of WT RT, and increasing concentrations of inhibitor (diluted) in water and incubated for 1 h at 37 °C, at 200 rpm. Products were measured with a multilabel counter plate reader Victor 3 (Perkin Elmer model 1420-051) equipped with filters for 490/528 nm (excitation/emission wavelength). A calibration curve for the fluorescein signal was generated in parallel, calculating pmols of product generated by the reaction. The reciprocal of the reaction product was plotted vs. the compound concentration a different condition using the Sigma-Plot software.

Read-outs that look alike come from different tables or passages of the source.

Turning to `Cc1sc2nc(-c3ccc(O)c(O)c3)[nH]c(=O)c2c1C` [Compound 1, 2-(3,4-dihydroxyphenyl)-5,6-dimethylthieno[2,3-d]pyrimidin-4(3H)-one, reference compound], the IC50 (as a rule, the midpoint of a concentration-inhibition curve) in series [1] is 320 nM.

As to `Cc1ccc2c(=O)[nH]c(-c3ccc(O)c(O)c3)nc2c1` [Compound 3, 2–(3,4-dihydroxyphenyl)-7-methylquinazolin-4(3H)-one], the “selectivity index (SI)” value in series [2] was 2. In addition, the response in series [2] was half-maximal at 12 µM (EC50). The IC50 in series [3] turned out to be 2.35 ± 0.44 µM; in series [4] it was 230 ± 20 nM; against HIV-1 RT-associated RDDP, 60 ± 9 µM; in series [6] it was 0.5 ± 0.02 µM. In series [5], the midpoint of cytotoxicity, the CC50, lay at 25 µM.

In the case of `COc1ccc2nc(-c3ccc(O)c(O)c3)[nH]c(=O)c2c1` [Compound 4, 2–(3,4-dihydroxyphenyl)-6-methoxyquinazolin-4(3H)-one], the IC50 in series [3] is 8.5 ± 0.3 µM; in series [4], 410 ± 10 nM; against HIV-1 RT-associated RDDP, 57 ± 3 µM; in series [6], 0.57 ± 0.02 µM.

In the case of `COc1cc2nc(-c3ccc(O)c(O)c3)[nH]c(=O)c2cc1OC` [Compound 5, 2–(3,4-dihydroxyphenyl)-6,7-dimethoxyquinazolin-4(3H)-one], the IC50 in series [3] is 6.5 ± 2.5 µM; in series [4], 330 ± 3 nM; at HIV-1 RT-associated RDDP, more than 100 µM; in series [6], 0.73 ± 0.02 µM.

For `O=c1[nH]c(-c2ccc(O)c(O)c2)nc2ccc(-c3ccccc3)cc12` [Compound 6, 2–(3,4-dihydroxyphenyl)-6-phenylquinazolin-4(3H)-one], the IC50 was 89 ± 10 µM in series [3], 290 ± 6 nM in series [4], 63 ± 11 µM on HIV-1 RT-associated RDDP and 0.37 ± 0.01 µM in series [6].

Regarding `O=c1[nH]c(-c2ccc(O)c(O)c2)nc2cc3ccccc3cc12` [Compound 7, 2–(3,4-dihydroxyphenyl)benzo[g]quinazolin-4(3H)-one], the IC50 in series [3] was 31.5 ± 6.5 µM; in series [4], 510 ± 50 nM; on HIV-1 RT-associated RDDP it was 23.4 ± 0.5 µM; in series [6], 1.1 ± 0.04 µM.

On to `O=c1[nH]c(-c2ccc(O)c(O)c2)nc2ccc(I)cc12` [Compound 8, 2–(3,4-dihydroxyphenyl)-6-iodoquinazolin-4(3H)-one], for which the “selectivity index (SI)” value in series [2] was 2. Further, the EC50 – broadly, the midpoint of the concentration-response curve – in series [2] worked out at 8.3 µM. The IC50 was determined as 3.4 ± 0.83 µM in series [3], 120 ± 1 nM in series [4], 26.7 ± 2.2 µM at HIV-1 RT-associated RDDP and 0.15 ± 0.01 µM in series [6]. Also, half-maximal cytotoxicity in series [5] (CC50) was put at 17 µM.

As to `O=c1[nH]c(-c2ccc(O)c(O)c2)nc2ccc(Br)cc12` [Compound 9, 2–(3,4-dihydroxyphenyl)-6-bromoquinazolin-4(3H)-one], the IC50 in series [3] turned out to be 7 ± 2 µM; in series [4] it was 400 ± 10 nM; against HIV-1 RT-associated RDDP, 46 ± 3 µM; in series [6], 0.45 ± 0.008 µM.

As for `O=c1[nH]c(-c2ccc(O)c(O)c2)nc2ccc(Cl)cc12` [Compound 10, 2–(3,4-dihydroxyphenyl)-6-chloroquinazolin-4(3H)-one], the “selectivity index (SI)” value in series [2] came to 4. Besides, in series [2], the concentration for a half-maximal effect (EC50) amounted to 5.4 µM. Also, the IC50 was 3.4 ± 0.6 µM in series [3], 200 ± 10 nM in series [4], 30.5 ± 0.4 µM on HIV-1 RT-associated RDDP and 0.31 ± 0.01 µM in series [6]. Besides, in series [5], half-maximal cytotoxicity (CC50) was put at 22 µM.

Consider `O=c1[nH]c(-c2ccc(O)c(O)c2)nc2cc(Cl)ccc12` [Compound 11, 2–(3,4-dihydroxyphenyl)-7-chloroquinazolin-4(3H)-one], for which, in series [2], the “selectivity index (SI)” value is 3. The compound further returned an EC50 in series [2] of 1.8 µM. Moreover, the IC50 in series [3] was 7.2 ± 0.7 µM; in series [4], 660 ± 50 nM; at HIV-1 RT-associated RDDP, more than 100 µM; in series [6] it was 0.43 ± 0.01 µM. For the same compound, the “interaction constant α” value in series [7] is “greater than 1”. Moreover, in series [7], the “simultaneous inhibition of RNase H (Yonetani-Theorell)” value is listed as “not kinetically mutually exclusive”. Half-maximal cytotoxicity in series [5] (CC50) was put at 6 µM.

As to `O=c1[nH]c(-c2ccc(O)c(O)c2)nc2ccc(F)cc12` [Compound 12, 2–(3,4-dihydroxyphenyl)-6-fluoroquinazolin-4(3H)-one], the IC50 in series [3] is 6.61 ± 0.93 µM; in series [4] it was 840 ± 30 nM; against HIV-1 RT-associated RDDP it was more than 100 µM; in series [6], 0.52 ± 0.06 µM.

In the case of `O=c1[nH]c(-c2ccc(O)c(O)c2)nc2ccc([N+](=O)[O-])cc12` [Compound 13, 2–(3,4-dihydroxyphenyl)-6-nitroquinazolin-4(3H)-one], the IC50 in series [3] was 23.2 ± 0.8 µM; in series [4], 170 ± 4 nM; against HIV-1 RT-associated RDDP, 99 ± 1 µM; in series [6] it was 0.31 ± 0.01 µM.

Consider `O=C1NC(c2ccc(O)c(O)c2)Nc2ccc(Cl)cc21` (centres unmarked) [Compound 14, 6-chloro-2–(3,4-dihydroxyphenyl)-2,3-dihydroquinazolin-4(1H)-one], for which the IC50 in series [3] is more than 100 µM; in series [4], 400 ± 30 nM; at HIV-1 RT-associated RDDP it was more than 100 µM; in series [6], 0.56 ± 0.25 µM.

`O=c1[nH]c(-c2ccc(O)c(O)c2)nc2c1oc1ccccc12` [Compound 15, 2–(3,4-dihydroxyphenyl)benzofuro[3,2-d]pyrimidin-4(3H)-one]: the IC50 in series [3] is 5.35 ± 0.35 µM; in series [4] it was 390 ± 10 nM; against HIV-1 RT-associated RDDP, 25.3 ± 6.3 µM; in series [6], 0.64 ± 0.03 µM.

As for `O=c1[nH]c(-c2ccc(O)c(O)c2)nc2ncccc12` [Compound 16, 2–(3,4-dihydroxyphenyl)pyrido[2,3-d]pyrimidin-4(3H)-one], the IC50 came out at 0.69 ± 0.19 µM in series [3], 2000 ± 100 nM in series [4], 38 ± 4 µM against HIV-1 RT-associated RDDP and 2.4 ± 1.6 µM in series [6].

On to `O=C(O)c1ccc(-c2nc3ccccc3c(=O)[nH]2)cc1O` [Compound 18, 2-hydroxy-4-(4-oxo-3,4-dihydroquinazolin-2-yl)benzoic acid], for which the IC50 in series [6] came out at 13.6 ± 0.3 µM.

With `Nc1ccc(-c2nc3ccccc3c(=O)[nH]2)cc1O` [Compound 19, 2-(4-amino-3-hydroxyphenyl)quinazolin-4(3H)-one], the IC50 in series [6] was more than 50 µM.

As to `Nc1ccc(-c2nc3ccccc3c(=O)[nH]2)cc1N` [Compound 20, 2–(3,4-diaminophenyl)quinazolin-4(3H)-one], the IC50 in series [6] is more than 50 µM.

Compound `O=c1[nH]c(-c2ccc([N+](=O)[O-])c(O)c2)nc2ccccc12` [Compound 21, 2–(3-hydroxy-4-nitrophenyl)quinazolin-4(3H)-one] showed an IC50 in series [6] of more than 50 µM.

As for `Oc1ccc(-c2ccc3ccccc3n2)cc1O` [Compound 22, 4-(quinolin-2-yl)benzene-1,2-diol], the IC50 in series [4] was determined as 610 ± 220 nM; in series [6], 2.9 ± 0.89 µM. For the same compound, the “fold more potent on C280A mutant RT RNase H than wt RT” value in series [4] (C280A vs wt) worked out at 4 fold.

Turning to `Oc1ccc(-c2ccc3ccccc3c2)cc1O` [Compound 23, 4-(naphthalen-2-yl)benzene-1,2-diol], in series [2], the “selectivity index (SI)” value came out at 2 and the EC50 was determined as 14 µM. In addition, half-maximal inhibition in series [4] (IC50) required 1200 ± 40 nM. Also, the CC50 (in general, the concentration at which the toxic effect on the cells reaches its halfway point) in series [5] is 26 µM. In series [6], this compound displayed an IC50 of 0.71 ± 0.03 µM. The “fold more potent than the reported compound 17” value in series [6] (wt RT RNase H) came to 5 fold.

Regarding `O=c1[nH]c(-c2ccc(O)c(O)c2)nc2sc3c(c12)CCCCC3` [Compound 24, 2–(3,4-dihydroxyphenyl)-3,5,6,7,8,9-hexahydro-4H-cyclohepta[4,5]thieno[2,3-d]pyrimidin-4-one, reference compound], in series [7], the “interaction constant α” value is given as “greater than 1” and the “simultaneous inhibition of RNase H (Yonetani-Theorell)” value was “not kinetically mutually exclusive”.
